Experimental data as given in PubChem BioAssay (NCI).
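Cultured in 96-well plates, cells were exposed to test compound for 48 hours across five concentrations. GI50 marks 50% less growth. TGI: concentration producing complete growth inhibition.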

Legend:
Assay in all cases: growth of human tumour cells (NCI), 48 h
CAKI-1 renal = tested on: CAKI-1 renal
OVCAR-4 ovarian = tested on: OVCAR-4 ovarian
MDA-MB-435 = tested on: MDA-MB-435
OVCAR-5 ovarian = tested on: OVCAR-5 ovarian
HOP-92 NSCLC = tested on: HOP-92 NSCLC
HCT-116 colon = tested on: HCT-116 colon
HCC-2998 colon = tested on: HCC-2998 colon
SK-MEL-2 melanoma = tested on: SK-MEL-2 melanoma
NCI-H460 lung = tested on: NCI-H460 lung
BT-549 breast = tested on: BT-549 breast

Structure (SMILES)	GI50 (CAKI-1 renal) [µM]	TGI (CAKI-1 renal) [µM]	GI50 (OVCAR-4 ovarian) [µM]	TGI (OVCAR-4 ovarian) [µM]	GI50 (MDA-MB-435) [µM]	TGI (MDA-MB-435) [µM]	GI50 (OVCAR-5 ovarian) [µM]	TGI (OVCAR-5 ovarian) [µM]	GI50 (HOP-92 NSCLC) [µM]	TGI (HOP-92 NSCLC) [µM]	GI50 (HCT-116 colon) [µM]	TGI (HCT-116 colon) [µM]	GI50 (HCC-2998 colon) [µM]	TGI (HCC-2998 colon) [µM]	GI50 (SK-MEL-2 melanoma) [µM]	TGI (SK-MEL-2 melanoma) [µM]	TGI (NCI-H460 lung) [µM]	GI50 (NCI-H460 lung) [µM]	GI50 (BT-549 breast) [µM]	TGI (BT-549 breast) [µM]
Cl.Fc1c[c-]c(-c2ccccn2)c(F)c1.[Pt].c1ccc([PH+](C[PH+](c2ccccc2)c2ccccc2)c2ccccc2)cc1	0.266	0.839	0.267	0.927	0.233	0.574	0.324	1.18	0.155	0.48	–	–	–	–	–	–	–	–	–	–
Cc1nc2ccccc2nc1N=Nc1ccccc1	–	–	16.5	> 100	18.3	48.8	75.7	> 100	3.03	43.9	31.1	> 100	37	> 100	24	61.3	–	–	–	–
COc1cc2ccnc3c(=C(SC)SC)c(=O)c(c1OC)c23	–	23.4	–	30.2	–	–	–	35.9	–	21.2	–	–	–	32.6	–	38.3	> 100	–	–	–
COc1c(N2CCN(CN3C(=O)C(=O)c4cc(Cl)ccc43)C(C)C2)c(F)cc2c(=O)c(C(=O)O)cn(C3CC3)c12 (stereo not given)	24.7	> 100	55.5	> 100	17.2	36.3	85.9	> 100	–	–	29.8	> 100	–	–	> 100	> 100	> 100	30.6	37.3	> 100
N#CC(C#N)=C/C=C(\Sc1ccc(F)cc1Cl)c1ccc(Cl)cc1	0.427	3.61	4.97	> 64.2	0.35	1.73	0.605	2.61	–	–	0.366	1.89	2.3	4.54	1.45	8.17	4.82	0.763	0.598	3.7
Cc1ccc(-n2nnnc2-c2cnc(N3CCOCC3)nc2-c2cccc(C(F)(F)F)c2)cc1	1.45	13.2	–	–	–	–	2.6	> 43.1	–	–	1.35	5.08	0.992	2.17	> 10.8	> 50	> 22.4	2	8.3	31.3
O=C(NCCCl)SCCO	–	–	–	> 100	–	–	–	> 100	–	–	–	> 100	–	> 100	–	> 100	> 100	–	–	–
COc1cc(Cl)cc(-c2nn(-c3cccc(NC(=O)Nc4ccc(Cl)c(Cl)c4)c3)cc2-c2ccncc2)c1	2.38	16.7	2.85	53.8	2.08	6	4.36	> 100	–	–	2.02	> 100	3.16	36.8	1.64	3.74	13.9	2.27	2.62	8.28
NC(=O)NC1C(C(=O)O)N(Cc2ccccc2)C(=O)N1Cc1ccccc1 (stereo not given)	–	> 100	–	> 100	–	–	–	> 100	–	> 100	–	> 100	–	> 100	–	> 100	> 100	–	–	–
CCC1(CN(C)C)CC/C(=C\c2ccc(OC)c(OC)c2)C1=O (stereo not given)	–	> 100	–	> 100	–	–	–	> 100	–	> 100	–	> 100	–	> 100	–	> 100	> 100	–	–	–
COC1CC(N)C(O)C(C)O1 (stereo not given)	–	> 100	–	> 100	–	> 100	–	> 100	–	> 100	–	> 100	–	> 100	–	–	> 100	–	–	> 100
N#CC1=C(O)NC(O)=C(C#N)C1c1ccc(C2C(C#N)=C(O)NC(O)=C2C#N)cc1	–	> 100	–	> 100	–	–	–	–	–	–	–	> 100	–	> 100	–	> 100	> 100	–	–	–
CC(C)(C)N/N=C(\C(=O)NC1=C(Cl)C(=O)c2ccccc2C1=O)C1C=CCS1(=O)=O (stereo not given)	–	45.6	–	30.7	–	–	–	35.5	–	33	–	35	–	57.3	–	24.9	22	–	–	25.1
O=C1c2cccnc2C(=O)c2c1c(C(=O)OCCCN1CCCCC1)c1ccccn21	< 0.01	0.105	0.28	2	0.0142	0.0417	0.0344	1.83	0.0512	0.913	< 0.0106	0.275	–	–	0.0303	0.0808	0.0122	< 0.01	0.108	2.78
CC(=O)NC(C=O)C(O[C@H](C)C(=O)NC(C)C(=O)NC(CCC(N)=O)C(=O)OCc1ccccc1)C(O)C(O)COC(=O)CCNc1c2ccccc2nc2cccc([N+](=O)[O-])c12 (stereo not given in full)	–	93.1	–	25.3	–	–	–	13.2	–	5.41	–	2.69	–	2.94	–	3.05	3.44	–	–	–
O=c1[nH]cnc2c(COCCO)c[nH]c12	–	> 100	–	> 100	–	–	–	> 100	–	> 100	–	–	–	–	–	> 100	> 100	–	–	–
NC(=O)CC(N=Cc1nc(-c2ccccc2)oc1O)C(=O)O (stereo not given)	–	> 100	–	> 100	–	–	–	> 100	–	> 100	–	> 100	–	> 100	–	> 100	> 100	–	–	–
COc1cccc(SSc2cccc(OC)c2C(=O)O)c1C(=O)O	–	> 100	–	> 100	–	–	–	> 100	–	> 100	–	> 100	–	–	–	> 100	> 100	–	–	–
Cc1ccc(C2NC(=O)c3ccccc3N2)c(C)c1 (stereo not given)	–	18.6	–	> 59.7	–	1.19	–	> 86.5	–	> 95.7	–	> 100	–	> 61.1	–	37.8	> 100	–	–	–
N#Cc1cccc(C=NC23CC4CC(CC(C4)C2)C3)c1	–	> 100	–	> 100	–	–	–	> 100	–	> 100	–	> 100	–	> 100	–	> 100	> 100	–	–	–
Cn1cc(C(=O)c2ccccc2)cc(C(=O)c2ccccc2)c1=O	–	> 100	–	> 100	–	–	–	> 100	–	> 100	–	–	–	> 100	–	> 100	> 100	–	–	–

Structure (SMILES)	GI50 (CAKI-1 renal) [µM]	TGI (CAKI-1 renal) [µM]	GI50 (OVCAR-4 ovarian) [µM]	TGI (OVCAR-4 ovarian) [µM]	GI50 (MDA-MB-435) [µM]	TGI (MDA-MB-435) [µM]	GI50 (OVCAR-5 ovarian) [µM]	TGI (OVCAR-5 ovarian) [µM]	GI50 (HOP-92 NSCLC) [µM]	TGI (HOP-92 NSCLC) [µM]	GI50 (HCT-116 colon) [µM]	TGI (HCT-116 colon) [µM]	GI50 (HCC-2998 colon) [µM]	TGI (HCC-2998 colon) [µM]	GI50 (SK-MEL-2 melanoma) [µM]	TGI (SK-MEL-2 melanoma) [µM]	TGI (NCI-H460 lung) [µM]	GI50 (NCI-H460 lung) [µM]	GI50 (BT-549 breast) [µM]	TGI (BT-549 breast) [µM]
Cc1ccc(NC(=O)CCc2n[nH]c(=S)o2)cc1	–	> 100	–	> 100	–	–	–	> 100	–	> 100	–	> 100	–	> 100	–	–	> 100	–	–	–
COCCOCCOCCOc1cccc2c1C(=O)c1cccc(OCCOCCOCCOC)c1C2=O	–	> 100	–	> 100	–	–	–	–	–	> 100	–	> 100	–	> 100	–	–	> 100	–	–	–
O=[N+]([O-])c1cc([N+](=O)[O-])c(Cl)cc1Cl	0.188	0.352	1.81	3.23	1.61	3.22	1.78	3.6	1.59	4.11	0.661	2.17	–	–	1.83	3.44	–	–	1.69	3.1
O=C(CC1C=Cc2ccccc2N1C(=O)c1ccccc1)c1ccccc1 (stereo not given)	–	> 100	–	> 100	–	47.8	–	> 100	–	86	–	45.6	–	–	–	38.8	> 100	–	–	69.7
CC(=O)c1ccc(NC(=O)COC(=O)c2cccc3c(=O)c4ccccc4[nH]c23)cc1	–	> 100	–	25.9	–	–	–	–	–	> 100	–	42.8	–	> 100	–	–	> 100	–	–	–
COc1ccc(NC(=O)CC(=O)n2nc(C)c(N=Nc3ccccc3C(=O)O)c2C)cc1	–	> 100	–	> 100	–	–	–	> 100	–	–	–	> 100	–	> 100	–	> 100	> 100	–	–	–
CCCCOC1OC(COC(=O)C(C)C)C(OC(=O)C(C)C)C(O)C1OC1OC(C)C(OC(=O)CCC)C(OC(=O)C(C)C)C1O (stereo not given)	17.4	31.1	15.1	30.4	14.5	27.6	12.7	25.2	13.2	25.9	6.41	18.4	–	–	36.2	> 100	27.8	11.6	22.1	37.7
Cc1ccc(S(=O)(=O)N/N=C/C(C)C)cc1	–	> 100	–	> 100	–	–	–	> 100	–	> 100	–	> 100	–	> 100	–	> 100	> 100	–	–	–
C=C(C(=C)P(=S)(C(C)C)C(C)C)P(=S)(C(C)C)C(C)C	–	> 100	–	> 100	–	–	–	> 100	–	> 100	–	> 100	–	> 100	–	–	> 100	–	–	–
CCCCCCCCCCCc1c(O)c(=O)c2c(oc3c(=O)c(CCCCCCCCCCC)c(O)c(=O)c3n2-c2ccc(N(C)C)cc2)c1=O	–	39.7	–	30.7	–	–	–	50.9	–	–	–	36.6	–	–	–	50.4	36.1	–	–	–
OCCN(CCO)c1cccc(N(CCO)CCO)n1	–	> 100	–	> 100	–	–	–	–	–	> 100	–	> 100	–	–	–	> 100	> 100	–	–	–
CCCCNc1ccc(Nc2ccccc2)cc1	18.6	88.5	4.35	> 100	3.29	24.3	29	> 100	3.42	32.5	2.97	22.7	5.73	> 100	–	–	43	4.61	2.84	21.6
CC([O-])=C1C(=O)c2ccccc2C1=O.CC([O-])=C1C(=O)c2ccccc2C1=O.CC[O-].CC[O-].[Ti+4]	59.5	> 100	> 100	> 100	–	–	> 100	> 100	> 100	> 100	–	–	> 100	> 100	> 100	> 100	> 100	> 100	–	–
COC(=O)Cc1cc(=O)[nH]c2c1C(=O)CCC2	–	–	–	–	–	–	–	> 100	–	> 100	–	–	–	> 100	–	> 100	> 100	–	–	–
O=Cc1ccc(-c2ccc(-c3nc4ccccc4s3)cc2)s1	48.2	> 100	> 100	> 100	56.2	> 100	> 100	> 100	–	–	35.3	> 100	> 100	> 100	> 100	> 100	> 100	83.5	63.8	> 100
O=c1c2cc3c(cc2c2cccc4c2n1CCC4)OCO3	–	> 100	–	> 100	–	–	–	> 100	–	> 100	–	71.1	–	> 100	–	> 100	> 100	–	–	–
COc1cccc(N2C(=O)C3C4C=C5c6ccccc6N(c6ccccc6)C5(C3C2=O)[C@H]2C(=O)N(c3cccc(OC)c3)C(=O)[C@@H]42)c1 (stereo not given in full)	–	> 100	–	> 100	–	–	–	> 100	–	> 100	–	> 100	–	–	–	> 100	> 100	–	–	–
COc1ccc(C(=O)C#Cc2c[nH]c(=O)[nH]c2=O)cc1	–	24.8	–	33.1	–	–	–	31	–	41.8	–	18.3	–	36.4	–	21.4	73.9	–	–	–
CCCCCCNCc1cc(C(C)(C)C)cc(CNCCCCCC)c1O	1.69	3.08	1.85	3.47	1.61	2.98	1.54	2.88	0.549	2.04	1.7	3.07	1.62	2.99	1.98	3.52	3.34	1.81	–	–
C=Cn1c([N+](=O)[O-])cnc1/C=C/c1ccc(C(=O)OCCN2CCOCC2)cc1	–	> 100	–	> 100	–	> 100	–	> 100	–	> 100	–	> 100	–	–	–	> 100	> 100	–	–	> 100
